Experiments:
[1] = tested on: non-small cell lung cancer cell lines; experiment: NCI 60 screen, sub-panel mean; assay type: cell-based, human; details: NCI-60, non-small cell lung cancer sub-panel
Description: (§1) Anticancer profiling over a panel of 60 cancer cell lines was carried out at the National Cancer Institute (NCI), Bethesda, Maryland, USA, https://dtp.cancer.gov/discovery_development/nci-60/methodology.htm (Last visit 22 September 2021), using the standard procedure (detailed procedure is located in the Supplementary Information page 50 s).
(§2) NCI standard procedure for 60 cell lines assay
(§3) The human tumor cell lines of the cancer screening panel are grown in RPMI 1640 mediu m containing 5% fetal bovine serum and 2 mM L-glutamine. For a typical screening experiment, cells are inoculated into 96 well microtiter plates in 100 μL at plating densities ranging from 5,000 to 40,000 cells/well depending on the doubling time of individual cell lines. After cell inoculation, the microtiter plates are incubated at 37° C, 5 % CO2, 95 % air and 100 % relative humidity for 24 h prior to addition of experimental drugs.
(§4) After 24 h, two plates of each cell line are fixed in situ with TCA, to represent a measurement of the cell population for each cell line at the time of drug addition (Tz). Experimental drugs are solubilized in dimethyl sulfoxide at 400-fold the desired final maximum test concentration (10 µM) and stored frozen prior to use. At the time of drug addition, an aliquot of frozen concentrate is thawed and diluted to twice the desired final maximum test concentration with co mp lete medium containing 50 μg/ml gentamicin. Additional four, 10-fold or ½ log serial dilutions are made to provide a total of five drug concentrations plus control. Aliquots of 100 μl of these different drug dilutions are added to the appropriate microtiter wells already containing 100 μl of medium, resulting in the required final drug concentrations.
(§5) Following drug addition, the plates are incubated for an additional 48 h at 37°C, 5 % CO2, 95 % air, and 100 % relative humidity. For adherent cells, the assay is terminated by the addition of cold TCA. Cells are fixed in situ by the gentle addition of 50 μl of cold 50 % (w/v) TCA (final concentration, 10 % TCA) and incubated for 60 minutes at 4°C. The supernatant is discarded, and the plates are washed five times with tap water and air dried. Sulforhodamine B (SRB) solution (100 μl) at 0.4 % (w/v) in 1 % acetic acid is added to each well, and plates are incubated for 10 minutes at room temperature. After staining, unbound dye is removed by washing five times with 1 % acetic acid and the plates are air dried. Bound stain is subsequently solubilized with 10 mM trizma base, and the absorbance is read on an automated plate reader at a wavelength of 515 nm. For suspension cells, the methodology is the same except that the assay is terminated by fixing settled cells at the bottom of the wells by g ently adding 50 μl of 80 % TCA (final concentration, 16 % TCA). Using the seven absorbance measurements [time zero, (Tz), control growth, (C), and test growth in the presence of drug at the five concentration levels (Ti)], the percentage growth is calculated at each of the drug concentrations levels. Percentage growth inhibition is calculated as:
(§6) [(Ti-Tz)/(C-Tz)] x 100 for concentrations for which Ti>/=Tz
(§7) [(Ti-Tz)/Tz] x 100 for concentrations for which Ti<Tz.
(§8) Three dose response parameters are calculated for each experimental agent. Growth inhibition of […]
(§9) resulting in a 50% reduction in the net protein increase (as measured by SRB staining) in control cells during the drug incubation. The drug concentration resulting in total growth inhibition […]
(§10) (TGI) is calculated from Ti = Tz.

renal cancer cell lines = experiment: NCI 60 screen, sub-panel mean; assay type: cell-based, human; details: NCI-60, renal cancer sub-panel
Description: as §1, §2, §3, §4, §5, §6, §7, §8, §9, §10

T-47D cells [2] = experiment: MTT assay IC50 over T-47D; assay type: cell-based; details: Homo sapiens, T47D
Description: (§11) In the beginning, the IC50 of compound 12e over T-47D (American Type Culture Collection, US) was determined using MTT assay, and the same procedure was applied for A375 and SK-MEL-5. T-47D cells (10^5 cells) were treated with 12e (5 µM) and incubated for 48h. Cells were collected by trypsinization, washed two times with ice-cold PBS, and re-suspended in 60% cold ethanol and kept at 4 °C for 60 min. PBS was used to wash the fixed cells and was re-suspended in 1.0 mL of PBS containing 10µg/mL propidium iodide and 50 µg/mL RNAase A. Cells were incubated in the dark at 37 °C for 20min; then, DNA contents were analyzed using flow cytometric analysis using an FL2 (λex/em 535/617 nm) signal detector. For each sample, 12,000 events were acquired. The cell cycle distribution was obtained by using ACEA NovoExpress^TM software.

NCI 60 cancer cell lines = experiment: NCI 60 cell line screen, mean over panel; assay type: cell-based, human
Description: as §1, §2
The human tumor cell lines of the cancer screening panel are grown in RPMI 1640 mediu m containing 5% fetal bovine serum and 2 mM L-glutamine. […]
Following drug addition, the plates are incubated for an additional 48 h at 37°C, 5 % CO2, 95 % air, and 100 % relative humidity. […] Bound stain is subsequently solubilized with 10 mM trizma base, and the absorbance is read on an automated plate reader at a wavelength of 515 nm. […] Using the seven absorbance measurements [time zero, (Tz), control growth, (C), and test growth in the presence of drug at the five concentration levels (Ti)], the percentage growth is calculated at each of the drug concentrations levels. Percentage growth inhibition is calculated as: […]
Three dose response parameters are calculated for each experimental agent. […]
resulting in a 50% reduction in the net protein increase (as measured by SRB staining) in control cells during the drug incubation. […]
as §10

T-47D cells [3] = experiment: Cell cycle analysis by flow cytometry (propidium iodide); assay type: cell-based; details: 5 µM
Description: The distribution of cell cycle was determined by flow cytometric assay after using propidium iodide to stain the DNA content of the treated cells. […] Meanwhile, the cells of the G2-phase decreased to 6% compared to 8% in the untreated cells.
as §11, with “T-47D cells (10^5 cells) were treated with 12e (5 µM) and incubated for 48h.” left out

colon cancer cell lines = experiment: NCI 60 screen, sub-panel mean; assay type: cell-based, human; details: NCI-60, colon cancer sub-panel
Description: as §1, §2, §3, §4, §5, §6, §7, §8, §9, §10

[4] = tested on: melanoma cancer cell lines; experiment: NCI 60 screen, sub-panel mean; assay type: cell-based, human; details: NCI-60, melanoma sub-panel
Description: as §1, §2, §3, §4, §5, §6, §7, §8, §9, §10

CNS cancer cell lines = experiment: NCI 60 screen, sub-panel mean; assay type: cell-based, human; details: NCI-60, CNS sub-panel
Description: as §1, §2, §3, §4, §5, §6, §7, §8, §9, §10

Cc1ccc(S(=O)(=O)NCCNc2nccc(-n3cnc4ccccc43)n2)cc1 [12g, N-(2-((4-(1H-benzo [d]imidazol-1-yl)pyrimidin-2-yl)amino)ethyl)-4-methyl benzenesulfonamide]
mean percent inhibition [1]: 30%
mean percent inhibition (renal cancer cell lines): around 30%

O=S(=O)(NCCNc1nccc(-n2cnc3ccccc32)n1)c1ccc(C(F)(F)F)cc1 [12e, N-(2-((4-(1H-benzo [d]imidazol-1-yl)pyrimidin-2-yl)amino)ethyl)-4-(trifluoromethyl)benzenesulfonamide]
IC50 (T-47D cells [2]): 5.35 µM
mean percent inhibition over 60-cell line panel (NCI 60 cancer cell lines): around 50%
cells in S-phase, treated cells (T-47D cells [3]; control 14%): 18%
cells in G1 phase, treated cells (T-47D cells [3]; control 29%): 31%
cells in G2-phase, treated cells (T-47D cells [3]; untreated 8%): 6%
mean percent inhibition (colon cancer cell lines): 40%
mean percent inhibition [1]: 50%
mean percent inhibition [4]: 50%
mean percent inhibition (renal cancer cell lines): 45%
mean percent inhibition (CNS cancer cell lines): 50%

O=S(=O)(NCCCNc1nccc(-n2cnc3ccccc32)n1)c1ccc(C(F)(F)F)cc1 [12l, N-(3-((4-(1H-benzo [d]imidazol-1-yl)pyrimidin-2-yl)amino)propyl)-4-(trifluoromethyl) benzenesulfonamide]
mean percent inhibition (colon cancer cell lines): 30%
mean percent inhibition [1]: 30%
mean percent inhibition (renal cancer cell lines): around 30%

— article PMC8508980, “Design, Synthesis and Anticancer Profile of New 4-(1H-benzo[d]imidazol-1-yl)pyrimidin-2-amine-Linked Sulfonamide Derivatives with V600EBRAF Inhibitory Effect” (International Journal of Molecular Sciences, 2021)
